Target: T1, human GPR120 (Homo sapiens, UniProt Q5NUL3)
T1 construct: Flag (DYKDDDDK) (N); host or cells: HEK293 cells co-expressing Gqi5
T1 sequence (Q5NUL3 1-361): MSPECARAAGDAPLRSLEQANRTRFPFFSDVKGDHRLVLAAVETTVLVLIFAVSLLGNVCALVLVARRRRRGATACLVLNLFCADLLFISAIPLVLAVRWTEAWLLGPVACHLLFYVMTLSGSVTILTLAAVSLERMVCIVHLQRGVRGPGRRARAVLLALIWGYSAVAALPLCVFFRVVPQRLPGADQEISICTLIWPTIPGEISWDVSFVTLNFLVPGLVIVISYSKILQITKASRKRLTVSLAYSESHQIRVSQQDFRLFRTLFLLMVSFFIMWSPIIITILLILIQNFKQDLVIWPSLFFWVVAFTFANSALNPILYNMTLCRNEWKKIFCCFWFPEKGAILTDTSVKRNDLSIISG
Assay: Intracellular Ca2+ assay (FLIPR Calcium 4, Flexstation) in human GPR120 stable cell line
Type: cell-based
Conditions: for EC50: human GPR120 stably expressing cells, eight concentrations from 0.00001 to 20 μM; for % Activity (Ex. 25 Reference Compound): % activity at 2.5 μM compared to the maximal activity of the compound of Example 25 at 2.5 μM, HEK293 cells co-expressing Gqi5
Description: Human GPR120 stable cell line was purchased from Multispan Inc (26219 Eden Landing Road, Hayward, Calif. 94545). This GPR120 cell line was generated in HEK293 cells co-expressing Gqi5. In this cell line, the Flag epitope tag (DYKDDDDK) was fused to the amino terminus of human GPR120 protein.
The concentration of intracellular Ca^2+ was measured as described below. Human GPR120 cells were plated in 96 well plates (Poly-D-Lysine coated black/clear Plate, Greiner Bio-One) at 70,000 cells per well and cultured overnight in conditions of 37° C. and 5% CO2. A Ca^2+ assay dye stock solution was prepared by adding 10 mL of assay buffer (HBSS/20 mM HEPES, pH 7.4) to FLIPR Calcium 4 Assay Bulk Kit (Molecular Devices). The 10 mL of Ca^2+ assay dye solution was prepared by further diluting 0.5 mL of Ca^2+ assay dye stock solution with 10 mL of assay buffer. The medium of the cells was removed and immediately 100 μL of the Ca^2+ assay dye solution was dispensed into each well followed by incubation at 37° C. and 5% CO2 for 50 minutes to incorporate the Ca^2+ dye into the cells. The cell plate was then placed in the Flexstation (Molecular Devices) for 20 minutes at 37° C. Compounds were dissolved in 100% DMSO and diluted to desired concentrations with assay buffer and placed in the Flexstation simultaneously with the cell plate for 20 minute incubation at 37° C. prior to reading. Fluorescence intensity was measured immediately following compound addition (25 μL/well) on the Flexstation at an excitation wavelength of 485 nm and an emission wavelength of 525 with 515 nm auto cutoff. The resulting increase in fluorescence intensities corresponds to increases in intracellular Ca^2+ levels.
Compounds were dissolved in 100% DMSO to a concentration of 20 mM to provide stock solutions. To determine activity against human GPR120, compounds were added with human GPR120 stably expressing cells (described above), at eight desired concentrations ranging from 0.00001 to 20 μM, in 96 well plates and fluorescence intensities were measured for 90 seconds with 2-second intervals. An EC50 value (concentration of the GPR120 agonist where 50% of the agonist's maximal activity is observed) was calculated using the changes (Max-Min) of fluorescence intensity.
To determine percent activity for a tested compound, the fluorescence intensity value obtained at a particular concentration were compared to the maximal fluorescence intensity value obtained for reference compound GW9508 (4-[[(3-phenoxyphenyl)methyl]amino]benzene propanoic acid; British Journal of Pharmacology 2006 148, 619-628) or the compound of Example 25. When GW9508 was used as the reference compound, the maximal activity of GW9508 at 6.7 μM was designated as 100% activity. When the compound of Example 25 was used as the reference compound, the maximal activity of the compound of Example 25 at 2.5 μM was designated as 100% activity. Typically, the GW9508 activity reached a maximum at a concentration of approximately 6.7 μM and typically the compound of Example 25 reached a maximum activity at approximately 2.5 μM.

Structure (SMILES)	EC50	% Activity (Ex. 25 Reference Compound)
COc1cc(CCC(=O)O)c(Br)cc1OCc1cc(Cl)cc2c1OC(C)(C)C2 [Example 57, 3-(2-bromo-4-((5-chloro-2,2-dimethyl-2,3-dihydrobenzofuran-7-yl)methoxy)-5-methoxyphenyl)propanoic acid]	1 to 10 µM	
CC1(C)Cc2cc(F)cc(COc3ccc(SCC(=O)O)cc3)c2O1 [Example 58, 2-((4-((5-fluoro-2,2-dimethyl-2,3-dihydrobenzofuran-7-yl)methoxy)phenyl)thio)-acetic acid]	1 to 10 µM	
CC1(C)Cc2cc(Cl)cc(COc3ccc(SCC(=O)O)cc3)c2O1 [Example 59, 2-((4-((5-chloro-2,2-dimethyl-2,3-dihydrobenzofuran-7-yl)methoxy)phenyl)thio)-acetic acid]	1 to 10 µM	117.58%
CCc1cc(OCc2cc(F)cc3c2OC(C)(C)C3)ccc1/C=C/C(=O)O [Example 60, (E)-3-(2-ethyl-4-((5-fluoro-2,2-dimethyl-2,3-dihydrobenzofuran-7-yl)methoxy)phenyl)acrylic acid]	1 to 10 µM	
CC1(C)Cc2cc(F)cc(COc3ccc(CCC(=O)O)c(C(F)(F)F)c3)c2O1 [Example 61, 3-(4-((5-fluoro-2,2-dimethyl-2,3-dihydrobenzofuran-7-yl)methoxy)-2-(trifluoromethyl)phenyl)propanoic acid]	1 to 10 µM	
CC1(C)Cc2cc(Cl)cc(COc3ccc(CCC(=O)O)c(C(F)(F)F)c3)c2O1 [Example 62, 3-(4-((5-chloro-2,2-dimethyl-2,3-dihydrobenzofuran-7-yl)methoxy)-2-(trifluoromethyl)phenyl)propanoic acid]	1 to 10 µM	
CC1(C)Cc2cc(F)cc(COc3ccc(CCC(=O)O)c4c3CCC4)c2O1 [Example 63, 3-(7-((5-fluoro-2,2-dimethyl-2,3-dihydrobenzofuran-7-yl)methoxy)-2,3-dihydro-1H-inden-4-yl)propanoic acid]	1 to 10 µM	95.03%
CC1(C)Cc2cc(Cl)cc(COc3ccc(CCC(=O)O)c4c3CCC4)c2O1 [Example 64, 3-(7-((5-chloro-2,2-dimethyl-2,3-dihydrobenzofuran-7-yl)methoxy)-2,3-dihydro-1H-inden-4-yl)propanoic acid]	1 to 10 µM	
C[C@H](Cc1ccc(OCc2cc(F)cc3c2OC(C)(C)C3)cc1)C(=O)O [Example 65, (R)-3-(4-((5-fluoro-2,2-dimethyl-2,3-dihydrobenzofuran-7-yl)methoxy)phenyl)-2-methylpropanoic acid]	1 to 10 µM	141.04%
C[C@@H](Cc1ccc(OCc2cc(F)cc3c2OC(C)(C)C3)cc1)C(=O)O [Example 66, (S)-3-(4-((5-fluoro-2,2-dimethyl-2,3-dihydrobenzofuran-7-yl)methoxy)phenyl)-2-methylpropanoic acid]	1 to 10 µM	
CC(Cc1ccc(NCc2cc(F)cc3c2OC(C)(C)C3)cc1)C(=O)O (stereo not drawn) [Example 67]	1 to 10 µM	141.82%
CC(Cc1ccc(NC(=O)c2cc(F)cc3c2OC(C)(C)C3)cc1)C(=O)O (stereo not drawn) [Example 68, 3-(4-(5-fluoro-2,2-dimethyl-2,3-dihydrobenzofuran-7-carboxamido)phenyl)-2-methylpropanoic acid]		69.03%
CCOC(Cc1cc(F)c(OCc2cc(F)cc3c2OC(C)(C)C3)c(F)c1)C(=O)O (stereo not drawn) [Example 69, 3-(3,5-difluoro-4-((5-fluoro-2,2-dimethyl-2,3-dihydrobenzofuran-7-yl)methoxy)phenyl)-2-ethoxypropanoic acid]		78.46%
CC1(C)Cc2cc(F)cc(CCc3ccc(OCC(=O)O)cc3)c2O1 [Example 70, 2-(4-(2-(5-fluoro-2,2-dimethyl-2,3-dihydrobenzofuran-7-yl)ethyl)phenoxy)acetic acid]		117.72%
CC1(C)Cc2cc(Cl)cc(COc3ccc(CCC(=O)O)c(-c4ccccc4)c3)c2O1 [Example 71, 3-(5-((5-chloro-2,2-dimethyl-2,3-dihydrobenzofuran-7-yl)methoxy)-[1,1′-biphenyl]-2-yl)propanoic acid]		133.8%
CC(Cc1ccc(OCc2cc(-c3ccc(Cl)cc3)cc3c2OC(C)(C)C3)cc1)C(=O)O (stereo not drawn) [Example 82, 3-(4-((5-(4-chlorophenyl)-2,2-dimethyl-2,3-dihydrobenzofuran-7-yl)methoxy)phenyl)-2-methylpropanoic acid]		24%

The remaining lines, values ahead:

EC50	% Activity (Ex. 25 Reference Compound)	Structure (SMILES)
	114.85%	CCCc1cc(OCc2cc(Cl)cc3c2OC(C)(C)C3)c(F)cc1CCC(=O)O [Example 73, 3-(4-((5-chloro-2,2-dimethyl-2,3-dihydrobenzofuran-7-yl)methoxy)-5-fluoro-2-propylphenyl)propanoic acid]
	109.62%	CC(Cc1ccc(OCc2cc(Cl)cc3c2OC(C)(C)C3=O)c(F)c1)C(=O)O (stereo not drawn) [Example 77, 3-(4-((5-chloro-2,2-dimethyl-3-oxo-2,3-dihydrobenzofuran-7-yl)methoxy)-3-fluorophenyl)-2-methylpropanoic acid]
	3.85%	CC(Cc1ccc(OCc2cc(Cl)cc3c2OC(C)(C)C3=O)c(C(F)(F)F)c1)C(=O)O (stereo not drawn) [Example 79, 3-(4-((5-chloro-2,2-dimethyl-3-oxo-2,3-dihydrobenzofuran-7-yl)methoxy)-3-(trifluoromethyl)phenyl)-2-methylpropanoic acid]
	86.25%	CC(Cc1ccc(OCc2cc(Cl)cc3c2OC(C)(C)C3O)c(F)c1)C(=O)O (stereo not drawn) [Example 80, 3-(4-((5-chloro-3-hydroxy-2,2-dimethyl-2,3-dihydrobenzofuran-7-yl)methoxy)-3-fluorophenyl)-2-methylpropanoic acid]
1 to 10 µM	5.23%	COc1cccc(-c2cc(COc3ccc(CC(C)C(=O)O)cc3)c3c(c2)CC(C)(C)O3)c1 (stereo not drawn) [Example 86, 3-(4-((5-(3-methoxyphenyl)-2,2-dimethyl-2,3-dihydrobenzofuran-7-yl)methoxy)phenyl)-2-methylpropanoic acid]
1 to 10 µM		CC(Cc1ccc(OCc2cc(-c3cccc(C(F)(F)F)c3)cc3c2OC(C)(C)C3)cc1)C(=O)O (stereo not drawn) [Example 87, 3-(4-((2,2-dimethyl-5-(3-(trifluoromethyl)phenyl)-2,3-dihydrobenzofuran-7-yl)methoxy)phenyl)-2-methylpropanoic acid]
1 to 10 µM	118.92%	CC(Cc1ccc(OCc2cc(Cl)cc3c2OC(C)(C)C3)c(CN(C)C)c1)C(=O)O (stereo not drawn) [Example 88, 3-(4-((5-chloro-2,2-dimethyl-2,3-dihydrobenzofuran-7-yl)methoxy)-3-((dimethylamino)methyl)phenyl)-2-methylpropanoic acid]
1 to 10 µM	82.28%	CCN(CC)c1cc(COc2ccc(CC(C)C(=O)O)cc2)c2c(c1)CC(C)(C)O2 (stereo not drawn) [Example 89, 3-(4-((5-(diethylamino)-2,2-dimethyl-2,3-dihydrobenzofuran-7-yl)methoxy)phenyl)-2-methylpropanoic acid]
1 to 10 µM	75.86%	CC(Cc1ccc(OCc2cc(-n3cnnn3)cc3c2OC(C)(C)C3)cc1)C(=O)O (stereo not drawn) [Example 90, 3-(4-((2,2-dimethyl-5-(1H-tetrazol-1-yl)-2,3-dihydrobenzofuran-7-yl)methoxy)phenyl)-2-methylpropanoic acid]
